Data as given in patent US5091425A, “5-(heterocyclylalkanoyl)amino-4-hydroxypentanamides” (Imperial Chemical Industries plc, priority 1988, dated 1992).
pIC50: −log10 of the molar value.

Molecular target: T1, partially purified human renin (Homo sapiens, UniProt P00797)
T1 sequence (P00797 67-406): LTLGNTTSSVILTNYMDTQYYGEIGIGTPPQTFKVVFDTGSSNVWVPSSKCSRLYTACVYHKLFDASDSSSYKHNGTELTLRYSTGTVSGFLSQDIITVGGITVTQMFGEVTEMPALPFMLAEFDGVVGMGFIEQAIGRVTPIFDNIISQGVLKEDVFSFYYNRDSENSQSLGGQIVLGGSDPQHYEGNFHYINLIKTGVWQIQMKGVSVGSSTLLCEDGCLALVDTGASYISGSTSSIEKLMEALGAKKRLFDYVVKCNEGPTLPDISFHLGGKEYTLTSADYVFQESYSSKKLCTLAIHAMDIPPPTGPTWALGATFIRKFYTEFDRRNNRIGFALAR
Assay: in vitro inhibition of renin-catalysed angiotensin I generation (radioimmunoassay)
Type: biochemical
Conditions: human renin with angiotensinogen; angiotensin I by radioimmunoassay; read-out: IC50 (concentration for 50% inhibition of the renin catalysed reaction)
Method: The inhibition of the catalytic activity of renin, and in particular of human renin, may be assessed in vitro using a routine laboratory procedure involving the incubation of a test compound initially at a concentration of 100 micromolar in a buffered mixture containing appropriate concentrations of partially purified human renin and the natural renin substrate angiotensinogen. The formation of the angiotensin known as angiotensin I (which is assayed by a standard radioimmunoassay using procedures well known in the art) is inhibited by those compounds which inhibit the action of renin and the degree of inhibition is readily determined by comparing the angiotensin I generation rate in the presence of the test compound (at the specified test concentration) with the control rate of angiotensin I generation in the absence of the test compound.
In this standard test procedure, compounds which show at least 30% inhibition are retested at lower concentrations to determine their inhibitory potency. For determination of the IC50 (concentration for 50% inhibition of the renin catalysed reaction), concentrations are ordinarily chosen to allow testing over at least four orders of magnitude centred about the predicted approximate IC50, which latter is subsequently determined from a plot of percentage inhibition against concentration of the test compound. […]

pIC50: 9.70
Structure (SMILES): CCCCNC(=O)[C@@H](C[C@H](O)[C@H](CC1CCCCC1)NC(=O)C(Cc1cccnc1)c1nnc2c(CCC)nc(-c3cccnc3)cn12)C(C)C (mixture of isomers) [Example 6, (2S,4S,5S)-N-butyl-6-cyclohexyl-4-hydroxy-2-isopropyl-5-[(2RS)-2-(8-propyl-6-(3-pyridyl)-1,2,4-triazolo[4,3-a]pyrazin-3-yl)-3-(3-pyridyl)propionamido]hexanamide]
